Experimental data published in US8575342B2, “HIV inhibiting 5-heterocyclyl pyrimidines” (Tibotech Pharmaceuticals Ltd., priority 2004, dated 2013).
Where two headings read alike, the source gives them in different places.

Legend:
[1] = test system: HIV strain C, mutation L100I in HIV reverse transcriptase; test: cellular antiviral assay, strain C; type: cell-based; details: for pEC50 C: strain C, L100I; for EC50: Human immunodeficiency virus 1, read-out: pEC50 C (converted)
From the text: Strain C contains mutation L100I in HIV reverse transcriptase, […]

[2] = test system: HIV strain D, mutation Y188L in HIV reverse transcriptase; test: cellular antiviral assay, strain D; type: cell-based; details: for pEC50 D: strain D, Y188L; for EC50: Human immunodeficiency virus 1, read-out: pEC50 D (converted)
From the text: Strain D contains mutation Y188L in HIV reverse transcriptase, […]

[3] = test system: HIV strain E, mutations L100I and K103N in HIV reverse transcriptase; test: cellular antiviral assay, strain E; type: cell-based; details: for pEC50 E: strain E, L100I and K103N; for EC50: Human immunodeficiency virus 1, read-out: pEC50 E (converted)
From the text: Strain E contains mutations L100I and K103N in HIV reverse transcriptase, […]

[4] = test system: wild type HIV-LAI strain (IIIB); test: cellular antiviral assay, strain IIIB; type: cell-based; details: for EC50: read-out: pEC50 IIIB (converted)
From the text: Strain IIIB is wild type HIV-LAI strain

[5] = cellular antiviral assay, strain G; type: cell-based, HIV; details: Human immunodeficiency virus 1, read-out: pEC50 G (converted)
[6] = test system: HIV strain B, mutation K103N in HIV reverse transcriptase; test: cellular antiviral assay, strain B; type: cell-based; details: for EC50: Human immunodeficiency virus 1, read-out: pEC50 B (converted)
From the text: Strain B contains mutation K103N in HIV reverse transcriptase, […]

[7] = Human immunodeficiency virus 1, IIIB

SMILES | pEC50 C [1] | pEC50 D [2] | pEC50 E [3] | pEC50 IIIB ([4]; strain IIIB, wild type HIV-LAI) | EC50 [1] [nM] | EC50 [2] [nM] | EC50 [3] [nM] | EC50 [5] [nM] | EC50 [4, 7] [nM] | EC50 [6] [nM] | pEC50 B ([6]; strain B, K103N) | EC50 ([4]; Human immunodeficiency virus 1, strain IIIB, wild type HIV-LAI) [nM]
Cc1noc(-c2cnc(Nc3ccc(C#N)cc3)nc2Nc2c(C)cc(/C=C/C#N)cc2C)n1 [Compound 16] | 8.4 | 7.8 | 7.7 | 8.3 |  |  |  |  |  |  |  | 
Cc1cc(/C=C/C#N)cc(C)c1Nc1nc(Nc2ccc(C#N)cc2)ncc1-n1cccc1 [Compound 1] |  |  |  |  | 1 | 6.31 | 3.98 | 1580 | 1 | 0.794 |  | 
Cc1cc(C=CC#N)cc(C)c1Nc1nc(Nc2ccc(C#N)cc2)ncc1-c1nc(-c2ccccc2)no1 (mixture of isomers) [Compound 13] | 7.8 | 7 | 7 | 7.8 |  |  |  |  |  |  | 7.7 | 
Cc1cc(/C=C/C#N)cc(C)c1Nc1nc(Nc2ccc(C#N)cc2)ncc1-c1nc(-c2cccs2)no1 [Compound 17] | 6.0 | 5.7 | 5.0 | 7.0 |  |  |  |  |  |  |  | 
Cc1cc(/C=C/C#N)cc(C)c1Nc1nc(Nc2ccc(C#N)cc2)ncc1-c1nc(-c2ccco2)no1 [Compound 15] | 6.7 | 6.2 | 4.6 | 7.6 |  |  |  |  |  |  |  | 
Cc1cc(/C=C/C#N)cc(C)c1Nc1nc(Nc2ccc(C#N)cc2)ncc1-c1ccco1 [Compound 3] |  |  |  |  | 0.631 | 2.51 | 3.16 | 631 |  | 0.794 |  | 0.631
Cc1cc(/C=C/C#N)cc(C)c1Nc1nc(Nc2ccc(C#N)cc2)ncc1-c1cccnc1 [Compound 2] |  |  |  |  | 2 | 3.98 | 12.6 | 7940 | 0.631 | 0.631 |  | 
Cc1cc(/C=C/C#N)cc(C)c1Nc1nc(Nc2ccc(C#N)cc2)ncc1-c1ncccc1N [Compound 20] |  |  | 7.1 | 8.7 |  |  |  |  |  |  |  | 
N#C/C=C/c1cc(F)c(Nc2nc(Nc3ccc(C#N)cc3)ncc2-n2cccc2)c(Cl)c1 [Compound 4] |  |  |  |  | 0.794 | 12.6 | 3.16 | 2510 | 1 | 1 |  | 
